Assay results from the NIST ThermoML archive (doi:10.1016/j.jct.2011.10.001).

Assay: molar heat capacity at constant pressure
Conditions: 101.33 kPa, Liquid, Vacuum adiabatic calorimetry

CCCC(=O)OC [methyl butanoate]
Conditions	molar heat capacity at constant pressure [J/K/mol]
258.06 K	191.41
259.91 K	191.46
260 K	191.68
261.76 K	191.67
263.49 K	192.11
265.34 K	192.17
267.17 K	192.77
269.01 K	193.06
270 K	193.16
270.85 K	193.64
272.68 K	194.01
274.5 K	193.7
276.33 K	194.03
278.16 K	194.27
279.98 K	194.58
280 K	194.68
281.79 K	195.04
283.59 K	195.25
285.4 K	195.54
287.19 K	195.76
288.98 K	196.51
290 K	196.51
290.74 K	196.84
292.33 K	196.73
294.09 K	197.27
295.83 K	197.8
297.59 K	198
298.15 K	198.08
299.34 K	198.43
300 K	198.44
301.06 K	198.72
302.76 K	198.98
304.45 K	199.24
306.14 K	199.38
307.81 K	199.85
309.48 K	200.31
310 K	200.39
311.13 K	200.58
312.78 K	200.66
314.42 K	201.21
316.05 K	201.68
317.67 K	201.91
318.97 K	202.28
320 K	202.43
320.57 K	202.72
322.17 K	203.14
323.75 K	203.27
325.32 K	203.68
326.89 K	204.18
328.44 K	204.41
329.98 K	204.65
330 K	204.68
331.51 K	204.84
333.03 K	205.34
334.54 K	205.78
336.04 K	206.3
337.49 K	206.62
338.96 K	206.61
340 K	207.21
340.42 K	207.11
341.87 K	207.49
342.87 K	207.85
344.3 K	208.38
345.71 K	208.82
347.12 K	209.31
348.51 K	209.73
349.89 K	209.95
350 K	210.03
351.26 K	210.42
352.61 K	210.86
353.95 K	211.39
355.28 K	211.75
356.6 K	211.91
357.9 K	212.69
359.2 K	212.83
360 K	213
360.47 K	213.07
361.74 K	213.3
362.99 K	214.05
363.57 K	213.92
364.8 K	214.49
366.02 K	214.53
367.22 K	214.65
368.41 K	215.35
369.58 K	215.99
370 K	215.8
370.75 K	216.01
371.9 K	216.31
